{
  "source": "ChEMBL document CHEMBL1772977",
  "about": "“Synthesis and biological evaluation of novel 4-benzylpiperazine ligands for sigma-1 receptor imaging” (Bioorg Med Chem, 2011)",
  "target": "3-beta-hydroxysteroid-Delta(8),Delta(7)-isomerase (Homo sapiens, UniProt Q15125)",
  "sequence (Q15125 whole entry)": "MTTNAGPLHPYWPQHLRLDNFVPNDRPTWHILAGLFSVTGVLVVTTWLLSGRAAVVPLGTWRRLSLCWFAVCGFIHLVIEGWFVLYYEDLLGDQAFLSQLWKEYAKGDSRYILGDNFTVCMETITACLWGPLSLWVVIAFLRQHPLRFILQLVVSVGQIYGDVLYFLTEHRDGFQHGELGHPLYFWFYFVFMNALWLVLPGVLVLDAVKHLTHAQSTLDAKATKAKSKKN",
  "assay": "Binding affinity to emopamil binding protein",
  "data": [
    {"smiles": "COc1cc(CCN2CCN(CCCc3ccccc3)CC2)ccc1O[11CH3]", "values": [
      {"measurement": "Ki", "value": 1.72, "unit": "nM"}
    ]}
  ]
}
